The record followed here is article PMC11822723 (ACS Omega, 2025).

≈ marks a conversion by molar mass, not a printed value. Where two headings read alike, the source gives them in different places.

Data set [1] is described as follows: Aqueous solubility measurements (stepwise solvent addition, stereo microscope). Format: physicochemical. The conditions noted are these: for solubility: thermodynamic from solid, read-out: solubility, conc. An excerpt:
Thus, the impact of the pH value on the solubilities of the Ox-Ibu-PIP-X-Mal complexes was investigated. Commercially available 0.9% NaCl has a pH of roughly 5, but when acidified to pH 3, the solubilities of both Ox-Ibu-PIP-X-Mal complexes increased by a factor of 1.5. […] Expectedly, using phosphate buffer or phosphate-buffered saline (PBS) at pH 7.4 further decreased the solubility.
5% glucose and 0.9% NaCl solutions were purchased from B. Braun. 0.9% NaCl solutions were acidified to pH 3.0 using 1 M HCl and basified to pH 7.0 using 1 M NaOH. Aqueous buffers (citrate, PB, PBS) were prepared in 100 mM concentrations. One mg of compound was weighted using a Sartorius ME215P analytical balance and the solubility was investigated according to the following stepwise interval: +1 μL in the volume range 0–10 μL; +10 μL in the volume range 10–100 μL; +100 μL in the volume range 100–1000 μL; +1000 μL in the volume range 1000–5000 μL. Dissolution of the sample was investigated using a Leica M80 routine stereo microscope (50× magnification) until no solid particles were observed.

For another data set, the target named is T1, albumin (Bos taurus, UniProt P02769).
T1 construct: Serum proteins (including albumin) have a retention time of 2–4 min, with the albumin fraction eluting at 4.0 min; tissue Sigma-Aldrich; host or cells: fetal calf serum (whole serum, buffered with 150 mM phosphate pH 7.4)
Put plainly: Albumin binding in phosphate-buffered fetal calf serum, 195Pt traces by SEC-ICP-MS. Format: in vitro ADME. The following applies: for bound to albumin after 1 h of incubation / bound to albumin at time point 0: 100 μM in FCS (150 mM phosphate buffer, pH 7.4), 37 °C. The method, then: Subsequently, it was of interest how the observed divergent maleimide hydrolysis rates impact the albumin binding kinetics. Therefore, the different platinum(IV) complexes were incubated in phosphate-buffered fetal calf serum (FCS) at 37 °C over 25 h and ^195Pt traces were measured via size-exclusion chromatographyinductively coupled plasma mass spectrometry (SEC-ICP-MS). Serum proteins (including albumin) have a retention time of 2–4 min, with the albumin fraction eluting at 4.0 min (Figure S1) as part of the high-molecular weight fraction (HMWF) and unbound platinum(IV) complexes elute in the low-molecular weight fraction (LMWF) with retention times usually >5 min. Already at time point 0, ∼60% of Ox-OAc-PEG4-Mal (tR = 6.4 min) was bound to albumin at 4.0 min in the HMWF, which increased to ∼90% after 1 h of incubation (Figure 2A). The remaining 10% of the parental complex (at tR > 5 min) most likely either contained a hydrolyzed maleimide moiety, unable to bind albumin, or were conjugated to low-molecular weight sulfur-containing compounds. The formed platinum(IV)-albumin conjugate remained stable for more than 25 h. […] In the LMWF, only a small peak of still intact Ox-OAc-PIP-C2-Mal (tR 6.5 min) could be observed, while a major signal (∼35%) of most likely already hydrolyzed maleimide compound appeared at tR 5.8 min. This is in very good agreement with the very fast hydrolysis of the maleimide moiety shown above (see Figure 1).
FCS was purchased from Sigma-Aldrich and buffered with 150 mM phosphate pH 7.4 in order to guarantee a stable pH. The platinum(IV) complexes (5 mM) were dissolved in 150 mM phosphate buffer (pH 7.4) and diluted […] in the buffered serum to obtain a final concentration of 100 μM. The samples were incubated in the autosampler at 37 °C and analyzed at 0, 1, 4, 24, and 25 h time points. Between each sample a pure water blank was measured. For SEC-ICP-MS measurements an Agilent 1260 Infinity system coupled to an Agilent 7800 ICP-MS equipped with a dynamic reaction cell was used. Oxygen (purity 5.5, Messer Austria GmbH, Gumpoldskirchen, Austria) was used as reaction gas.

Data set [2] is described as follows: Hydrolytic stability of the maleimide in phosphate buffer, UHPLC. The conditions noted are these: 1 mM, 150 mM phosphate buffer pH 7.4, 20 °C. The format is physicochemical. On the procedure:
It is known from literature that most maleimides are prone to hydrolysis at physiological pH.[38] Consequently, the hydrolytic stabilities of the three oxaliplatin(IV)-acetato complexes bearing the piperazine maleimides were studied in comparison to the reference complex Ox-OAc-PEG4-Mal. The hydrolysis of the platinum(IV)-acetato complexes was investigated in phosphate buffer at pH 7.4 and 20 °C over 5 h and the amount of remaining intact parental complex was monitored with ultrahigh-performance liquid chromatography (UHPLC) (Figure 1). Ox-OAc-PIP-C2-Mal hydrolyzed rapidly, with only traces of intact platinum(IV)-maleimide remaining after 1 h incubation time. […] These dramatic differences are in line with some model maleimide compounds reported in literature, also containing piperazine moieties.[38] The strong inductive effects of the protonated quaternary nitrogen of the piperazine can explain the extremely fast hydrolysis of Ox-OAc-PIP-C2-Mal.
Phosphate buffer (150 mM, pH 7.4) containing 1 mM platinum compound was incubated at 20 °C. The reaction was monitored on a Thermo Scientific Dionex UltiMate 3000 UHPLC-system using a Waters Acquity UPLC BEH C18 1.7 μm 3.0 mm × 50 mm column. Milli-Q water, containing 0.1% formic acid, and acetonitrile containing 0.1% formic acid were used as eluents. A gradient of 5–95% over 5 min was used. […]

[3] abbreviates: 0.9% NaCl solution, pH 5, saline or isotonic, 0.9% NaCl.
Where [4] appears, read: 5% glucose solution, saline or isotonic, 5% glucose.

T1 sequence (P02769 25-607): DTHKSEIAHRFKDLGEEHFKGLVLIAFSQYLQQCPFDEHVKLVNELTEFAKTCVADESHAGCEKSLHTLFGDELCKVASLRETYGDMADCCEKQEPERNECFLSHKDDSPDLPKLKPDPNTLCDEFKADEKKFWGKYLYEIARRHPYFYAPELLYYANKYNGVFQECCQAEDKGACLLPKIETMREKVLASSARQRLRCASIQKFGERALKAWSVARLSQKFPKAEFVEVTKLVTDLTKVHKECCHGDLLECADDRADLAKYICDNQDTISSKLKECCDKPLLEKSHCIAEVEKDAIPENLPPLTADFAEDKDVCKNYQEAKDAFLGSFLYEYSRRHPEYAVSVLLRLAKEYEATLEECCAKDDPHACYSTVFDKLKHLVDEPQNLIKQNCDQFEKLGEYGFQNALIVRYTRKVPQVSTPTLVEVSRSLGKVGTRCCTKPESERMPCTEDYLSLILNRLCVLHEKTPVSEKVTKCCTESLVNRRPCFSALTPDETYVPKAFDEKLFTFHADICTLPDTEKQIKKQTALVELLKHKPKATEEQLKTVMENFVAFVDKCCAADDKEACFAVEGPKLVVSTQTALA

For orientation: solubility means the dissolved amount per volume that the medium holds. As to `CC(C)[C@H](NC(=O)CCN1CCN(CCOCCN2C(=O)C=CC2=O)CC1)C(=O)N[C@@H](CCCNC(N)=O)C(=O)Nc1ccc(CO)cc1` [Mal-O-PIP-ValCitPAB-OH, (S)-2-((S)-2-(3-(4-(2-(2-(2,5-Dioxo-2,5-dihydro-1H-pyrrol-1-yl)ethoxy)ethyl)piperazin-1-yl)propanamido)-3-methylbutanamido)-N-(4-(hydroxymethyl)phenyl)-5-ureidopentanamide], the solubility was 1500 mM (≈ 1030 mg/mL) in data set [1] (setting [3]) and 700 mM (≈ 481 mg/mL) in data set [1] (setting [4]).

In the case of `CC(=O)[O][Pt]12([O]C(=O)NCCN3CCN(CCCCCN4C(=O)C=CC4=O)CC3)([NH][C@@H]3CCCC[C@H]3[NH]1)[O]C(=O)C(=O)[O]2` [Ox-OAc-PIP-C5-Mal, (OC-6–34)-Acetato-[(1R,2R)-1,2-cyclohexanediamino][(2-(4-(5-(2,5-dioxo-2,5-dihydro-1H-pyrrol-1-yl)pentyl)piperazin-1-yl)ethyl)carbamato]oxalatoplatinum(IV)], on albumin, the “bound to albumin after 1 h of incubation” value is ~95% and the “bound to albumin at time point 0” value came to 69%.

As for `CC(C)C(NC(=O)CCOCCOCCOCCOCCN1C(=O)C=CC1=O)C(=O)NC(CCCNC(N)=O)C(=O)Nc1ccc(CO)cc1` (stereo not shown) [Mal-PEG4-ValCitPAB-OH, reference compound], the “solubility, conc.” value in data set [1] (0.9% NaCl) worked out at 35 mM (≈ 24.7 mg/mL); in data set [1] (5% glucose), 24 mM (≈ 17 mg/mL). Besides, the solubility in data set [1] (setting [3]) was determined as 40 mM (≈ 28.3 mg/mL); in data set [1] (setting [4]), 20 mM (≈ 14.1 mg/mL).

`CC(=O)[O][Pt]12([O]C(=O)NCCOCCOCCOCCOCCN3C(=O)C=CC3=O)([NH][C@@H]3CCCC[C@H]3[NH]1)[O]C(=O)C(=O)[O]2` [Ox-OAc-PEG4-Mal, (OC-6–34)-Acetato-[(1R,2R)-1,2-cyclohexanediamino][(14-(2,5-dioxo-2,5-dihydro-1H-pyrrol-1-yl)-3,6,9,12-tetraoxatetradecyl)carbamato]oxalatoplatinum(IV)]: in data set [2], the “intact maleimide / intact complex remaining after 5 h incubation” value is given as ~70%. Moreover, at albumin, the “bound to albumin after 1 h of incubation” value is ~90% and the “bound to albumin at time point 0” value is given as ~60%. Also, the “time the formed platinum(IV)-albumin conjugate remained stable” value on albumin (FCS, pH 7.4, 37 °C) is reported as “over 25 h”. Also, the “remaining parental complex not bound to albumin (tR > 5 min)” value at albumin (FCS, pH 7.4, 37 °C, after 1 h) was 10%.

With `CC(C)[C@H](NC(=O)CCC(=O)NCCN1CCN(CCOCCN2C(=O)C=CC2=O)CC1)C(=O)N[C@@H](CCCNC(N)=O)C(=O)Nc1ccc(CO)cc1` [Mal-O-PIP-Succ-ValCitPAB-OH, N1-(2-(4-(2-(2-(2,5-Dioxo-2,5-dihydro-1H-pyrrol-1-yl)ethoxy)ethyl)piperazin-1-yl)ethyl)-N4-((S)-1-(((S)-1-((4-(hydroxymethyl)phenyl)amino)-1-oxo-5-ureidopentan-2-yl)amino)-3-methyl-1-oxobutan-2-yl)succinamide], the solubility in data set [1] (setting [3]) turned out to be 1300 mM (≈ 985 mg/mL); in data set [1] (setting [4]), 600 mM (≈ 455 mg/mL).

Take `CC(C)[C@H](NC(=S)NCCN1CCN(CCOCCN2C(=O)C=CC2=O)CC1)C(=O)N[C@@H](CCCNC(N)=O)C(=O)Nc1ccc(CO)cc1` [Mal-O-PIP-ThioU-ValCitPAB-OH, (S)-2-((S)-2-(3-(2-(4-(2-(2-(2,5-Dioxo-2,5-dihydro-1H-pyrrol-1-yl)ethoxy)ethyl)piperazin-1-yl)ethyl)thioureido)-3-methylbutanamido)-N-(4-(hydroxymethyl)phenyl)-5-ureidopentanamide]: the values for the solubility in data set [1] (setting [3]) and in data set [1] (setting [4]) were 1400 mM (≈ 1010 mg/mL) and 600 mM (≈ 431 mg/mL), respectively.

On to `CC(=O)[O][Pt]12([O]C(=O)NCCN3CCN(CCN4C(=O)C=CC4=O)CC3)([NH][C@@H]3CCCC[C@H]3[NH]1)[O]C(=O)C(=O)[O]2` [Ox-OAc-PIP-C2-Mal, (OC-6–34)-Acetato-[(1R,2R)-1,2-cyclohexanediamino][(2-(4-(2-(2,5-dioxo-2,5-dihydro-1H-pyrrol-1-yl)ethyl)piperazin-1-yl)ethyl)carbamato]oxalatoplatinum(IV)], for which the “bound to albumin at time point 0” value at albumin is reported as ~60%. Moreover, on albumin (FCS, pH 7.4, 37 °C), the “signal of most likely already hydrolyzed maleimide compound in LMWF (tR 5.8 min)” value is listed as ~35%. The “course of albumin binding over time” value at albumin (FCS, pH 7.4, 37 °C, over 25 h) is given as “did not further increase over time”.

`CC(=O)[O][Pt]12([O]C(=O)NCCN3CCN(CCOCCN4C(=O)C=CC4=O)CC3)([NH][C@@H]3CCCC[C@H]3[NH]1)[O]C(=O)C(=O)[O]2` [Ox-OAc-PIP-O-Mal, (OC-6–34)-Acetato-[(1R,2R)-1,2-cyclohexanediamino][(2-(4-(2-(2-(2,5-dioxo-2,5-dihydro-1H-pyrrol-1-yl)ethoxy)ethyl)piperazin-1-yl)ethyl)carbamato]oxalatoplatinum(IV)]: at albumin, the “bound to albumin after 1 h of incubation” value is listed as ~95% and the “bound to albumin at time point 0” value was determined as 75%.
